Some test systems named below: OVCAR-4; CAKI-1; MCF7; EKVX; SF-295; KM12; SN12C; OVCAR-8; A549; HOP-62; A498; PC-3; Hs-578T; NCI/ADR-RES; MDA-MB-435; U-251; HL-60; UO-31; BT-549.
What all share (experiment): NCI-60 cell line screen, 48 h

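Exposure lasted 48 hours, with cells grown in 96-well plates and compounds tested at five concentrations. GI50 is the concentration that inhibits growth by half.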 Active and inactive are the calls of the source. Cut-off read from the data, not from the text of the source: active = GI50 up to about 1.1 µM and inactive = higher.

For `COc1ccc(C2=CC(c3ccc4c(c3)OCO4)c3c(c4ccccc4oc3=O)O2)cc1OC` (stereo not given), the GI50 was 98.4 µM (inactive) with OVCAR-4; 1.1 µM (active) in the experiment on CAKI-1; 0.454 µM (active) in the experiment with MCF7; 4.16 µM (inactive) in the experiment with EKVX; 0.374 µM (active) in the experiment with SF-295; 1.76 µM (inactive) in the experiment with KM12. Further, the GI50 was 5.56 µM (inactive) in the experiment with SN12C; 3.53 µM (inactive) in the experiment on OVCAR-8; 2.78 µM (inactive) in the experiment on A549; 1.44 µM (inactive) in the experiment on HOP-62; 0.91 µM (active) in the experiment on A498; 2.42 µM (inactive) with PC-3. Further, the GI50 with Hs-578T was 1.65 µM (inactive); in the experiment on NCI/ADR-RES, 1.41 µM (inactive); with MDA-MB-435, 0.366 µM (active); in the experiment on U-251, 1.98 µM (inactive); in the experiment with HL-60, 0.351 µM (active); with UO-31 it was 2.55 µM (inactive).

`COc1cc(NCc2ccc3nc(-c4ccccc4)c(N)nc3c2)cc(OC)c1OC`: the GI50 was 29.3 µM (inactive) in the experiment with OVCAR-4; 28.8 µM (inactive) in the experiment on CAKI-1; 28.5 µM (inactive) with MCF7; 33.2 µM (inactive) in the experiment on EKVX; 35.6 µM (inactive) in the experiment on SF-295; 26.5 µM (inactive) in the experiment with KM12. Also, the GI50 in the experiment on SN12C was 38.5 µM (inactive); in the experiment on OVCAR-8, 27.7 µM (inactive); in the experiment with A549, 30.8 µM (inactive); with HOP-62, 43.8 µM (inactive); in the experiment on A498, 23.3 µM (inactive); in the experiment on PC-3, 28.2 µM (inactive). In addition, the GI50 is 22.2 µM (inactive) in the experiment on NCI/ADR-RES; 22.3 µM (inactive) with MDA-MB-435; 39.3 µM (inactive) with U-251; 25.6 µM (inactive) in the experiment with HL-60; 29.2 µM (inactive) with UO-31.

Regarding `O=C(c1ccccc1)c1ccc2[nH]c(-c3c(Cl)c(Cl)c(Cl)c(Cl)c3C(=O)Nc3ccco3)nc2c1`, the GI50 in the experiment on OVCAR-4 was 42.3 µM (inactive); with CAKI-1 it was > 100 µM (inactive); with BT-549, 22.2 µM (inactive); in the experiment on MCF7 it was 24.8 µM (inactive); in the experiment with EKVX it was 67 µM (inactive); with SF-295 it was 23.6 µM (inactive). Besides, the GI50 in the experiment on KM12 was 33 µM (inactive); in the experiment on SN12C, 48.2 µM (inactive); with OVCAR-8 it was 60.3 µM (inactive); in the experiment with A549, 26.5 µM (inactive); in the experiment on HOP-62, 45.3 µM (inactive); in the experiment with A498 it was 20 µM (inactive). For the same molecule, the GI50 was 17.1 µM (inactive) in the experiment with PC-3; 16.4 µM (inactive) in the experiment on NCI/ADR-RES; 12.6 µM (inactive) in the experiment on MDA-MB-435; 42.5 µM (inactive) with U-251; 24.2 µM (inactive) in the experiment with HL-60; 51.5 µM (inactive) in the experiment with UO-31.

Consider `[N-]=[N+]=NCN1C(=O)C2C3C=CC(C2C1=O)C1C2C(=O)N(CN=[N+]=[N-])C(=O)C2C31` (stereo not given), for which the GI50 in the experiment with CAKI-1 is > 100 µM (inactive); with MCF7, > 100 µM (inactive); with EKVX it was > 100 µM (inactive); in the experiment with SF-295 it was 60 µM (inactive); with KM12, > 100 µM (inactive); in the experiment with SN12C, > 100 µM (inactive). For the same molecule, the GI50 in the experiment with OVCAR-8, in the experiment on A549, with HOP-62, in the experiment on PC-3, in the experiment with Hs-578T and in the experiment on NCI/ADR-RES was > 100 µM (inactive) throughout. The GI50 in the experiment on MDA-MB-435 and with UO-31 was > 100 µM (inactive) throughout.

Regarding `O=C(/C=C/c1ccccc1)CSc1nc[nH]n1`, the GI50 with OVCAR-4 was > 100 µM (inactive); in the experiment on CAKI-1 it was > 100 µM (inactive); in the experiment on BT-549 it was > 100 µM (inactive); with MCF7, 36.4 µM (inactive); in the experiment with EKVX, > 100 µM (inactive); with SF-295, 81.1 µM (inactive). Besides, the GI50 in the experiment on KM12, in the experiment on SN12C, in the experiment on OVCAR-8, in the experiment on A549, in the experiment with HOP-62 and in the experiment on PC-3 was > 100 µM (inactive) in each case. The GI50 is > 100 µM (inactive) in the experiment on NCI/ADR-RES, 37.1 µM (inactive) in the experiment on U-251, 45.9 µM (inactive) with HL-60 and > 100 µM (inactive) with UO-31.

As to `O=C1CCC2CCOc3ccc(O)c1c32` (stereo not given), the GI50 in the experiment on OVCAR-4, in the experiment with EKVX, with SF-295, with KM12, in the experiment on SN12C and in the experiment on OVCAR-8 was > 100 µM (inactive) each time. Also, the GI50 with A549, in the experiment with HOP-62, in the experiment with A498, in the experiment with U-251, in the experiment with HL-60 and with UO-31 was > 100 µM (inactive) throughout.

Turning to `Cc1nc2ccc(Cl)cc2c2c1CCS2`, the GI50 in the experiment on OVCAR-4 is 26.8 µM (inactive); with CAKI-1, 55.2 µM (inactive); in the experiment on MCF7 it was 33.3 µM (inactive); in the experiment on SF-295, > 100 µM (inactive); with KM12, > 100 µM (inactive); in the experiment with SN12C, 42 µM (inactive). Besides, the GI50 in the experiment with OVCAR-8 is 92 µM (inactive); with A549, 67 µM (inactive); in the experiment with HOP-62 it was > 100 µM (inactive); in the experiment on A498, 22 µM (inactive); in the experiment on PC-3, 36.6 µM (inactive); with Hs-578T, 28.6 µM (inactive). Moreover, the GI50 in the experiment with NCI/ADR-RES was 51.4 µM (inactive); in the experiment on MDA-MB-435 it was 68.5 µM (inactive); with U-251 it was > 100 µM (inactive); with HL-60, 27.2 µM (inactive); in the experiment with UO-31, 4.09 µM (inactive).

Regarding `ClC1=C(Cl)C2OC3C=CCC3OC2C(Cl)=C1Cl` (stereo not given), the GI50 is > 100 µM (inactive) in the experiment on OVCAR-4; > 100 µM (inactive) with CAKI-1; 0.429 µM (active) in the experiment on MCF7; 44.1 µM (inactive) in the experiment with EKVX; > 100 µM (inactive) in the experiment with SF-295; 40.6 µM (inactive) in the experiment with KM12. Further, the GI50 was > 100 µM (inactive) in the experiment with OVCAR-8; > 100 µM (inactive) in the experiment on HOP-62; > 100 µM (inactive) in the experiment with A498; 39.7 µM (inactive) in the experiment on PC-3; 27.5 µM (inactive) in the experiment on Hs-578T; 53.6 µM (inactive) with NCI/ADR-RES. The GI50 in the experiment on MDA-MB-435 was 56.9 µM (inactive); in the experiment on U-251, 52.8 µM (inactive); in the experiment with HL-60 it was 36.1 µM (inactive); with UO-31, > 100 µM (inactive).

For the molecule `CCCCOCn1c(=O)[nH]c(=O)c2ccccc21`, the GI50 in the experiment with OVCAR-4 is 35.7 µM (inactive); with CAKI-1, > 100 µM (inactive); in the experiment on MCF7, 68.9 µM (inactive); in the experiment on EKVX it was 44.9 µM (inactive); with SF-295 it was > 100 µM (inactive); with KM12 it was > 100 µM (inactive). Also, the GI50 in the experiment on SN12C is > 100 µM (inactive); in the experiment on OVCAR-8, 37.5 µM (inactive); in the experiment on A549, > 100 µM (inactive); in the experiment on A498, > 100 µM (inactive); in the experiment on NCI/ADR-RES it was 22.8 µM (inactive); in the experiment on MDA-MB-435 it was > 100 µM (inactive). Further, the GI50 was > 100 µM (inactive) in the experiment on U-251, 68.4 µM (inactive) in the experiment with HL-60 and 13.1 µM (inactive) with UO-31.

Take `COc1cccc(-c2nc(-c3cnccn3)n(C3OC(CO)C(O)C3O)n2)c1` (stereo not given): the GI50 with OVCAR-4, in the experiment with BT-549, with MCF7, with EKVX, in the experiment with SF-295 and in the experiment on KM12 was > 100 µM (inactive) throughout. The GI50 with SN12C, with OVCAR-8, in the experiment on A549, with HOP-62, in the experiment with PC-3 and with NCI/ADR-RES was > 100 µM (inactive) throughout. Moreover, the GI50 in the experiment on MDA-MB-435, in the experiment with U-251, in the experiment with HL-60 and with UO-31 was > 100 µM (inactive) each time.

In the case of `CCN(CC)CCN1CCN=C2c3cc(OC)ccc3Nc3c([N+](=O)[O-])ccc1c32`, the GI50 with OVCAR-4 is 1.07 µM (active); in the experiment on CAKI-1 it was 1.93 µM (inactive); in the experiment with MCF7, 0.551 µM (active); in the experiment on EKVX it was 1.69 µM (inactive); with SF-295 it was 1.82 µM (inactive); in the experiment on KM12, 1.15 µM (inactive). For the same molecule, the GI50 is 0.667 µM (active) in the experiment with SN12C; 0.441 µM (active) with OVCAR-8; 1.24 µM (inactive) with A549; 0.56 µM (active) in the experiment with HOP-62; 0.697 µM (active) in the experiment on PC-3; 1.28 µM (inactive) in the experiment on MDA-MB-435. In addition, the GI50 in the experiment with HL-60 is 0.519 µM (active).

`COC(=O)CC1C2CC3C(C2=O)C13` (stereo not given): the GI50 with OVCAR-4, in the experiment on CAKI-1, in the experiment with MCF7, in the experiment on EKVX, in the experiment on SF-295 and in the experiment with KM12 was > 100 µM (inactive) each time. Further, the GI50 with SN12C, in the experiment with OVCAR-8, in the experiment on A549, with HOP-62, in the experiment with A498 and with PC-3 was > 100 µM (inactive) throughout. The GI50 in the experiment on Hs-578T is > 100 µM (inactive); in the experiment with NCI/ADR-RES, > 100 µM (inactive); in the experiment on MDA-MB-435 it was > 100 µM (inactive); in the experiment with U-251, > 100 µM (inactive); in the experiment on HL-60, 33.6 µM (inactive); in the experiment on UO-31 it was > 100 µM (inactive).

Consider `CCCc1cc2c(cc1O)CC[C@@H]1[C@@H]2CC[C@]2(C)[C@@H](O)CC[C@@H]12`, for which the GI50 in the experiment on OVCAR-4 is 17.7 µM (inactive); in the experiment with CAKI-1, 11.3 µM (inactive); in the experiment with EKVX, 12.7 µM (inactive); in the experiment on SF-295 it was 5.82 µM (inactive); with KM12, 9.12 µM (inactive); in the experiment with SN12C, 11.7 µM (inactive). The GI50 was 14.4 µM (inactive) in the experiment on OVCAR-8; 10.6 µM (inactive) with A549; 17.9 µM (inactive) with A498; 13.4 µM (inactive) with PC-3; 10.1 µM (inactive) with Hs-578T; 6.32 µM (inactive) with NCI/ADR-RES. Moreover, the GI50 is 6.62 µM (inactive) in the experiment with U-251, 12.6 µM (inactive) in the experiment on HL-60 and 12 µM (inactive) with UO-31.
